Consider four molecules from patent US9204645B2, “Insecticidal aromatic amides” (BAYER INTELLECTUAL PROPERTY GMBH, priority 2011, dated 2015).

Holding throughout (type): in vivo
In assay [1] the test system is caterpillars of the armyworm (Spodoptera frugiperda). The experiment in a line: Spodoptera frugiperda spray test (SPODFR). The note with it: 168 h, 7 dat. As for the experimental part:
Spodoptera frugiperda—Spray Test (SPODFR)
• Solvents: 78.0 parts by weight of acetone • 1.5 parts by weight of dimethylformamide • Emulsifier: 0.5 part by weight of alkylaryl polyglycol ether • To produce a suitable preparation of active compound, 1 part by weight of active compound is mixed with the stated amounts of solvents and emulsifier, and the concentrate is diluted with emulsifier-containing water to the desired concentration.
Leaf discs of maize (Zea mays) are sprayed with an active compound preparation of the desired concentration and, after drying, populated with caterpillars of the armyworm (Spodoptera frugiperda).
After the desired period of time, the effect in % is determined. 100% means that all of the caterpillars have been killed; 0% means that none of the caterpillars have been killed.

The test system of assay [2] is larvae of the mustard beetle (Phaedon cochleariae). The experiment in a line: Phaedon cochleariae spray test (PHAECO). As to conditions: for inhibition at 100 g/ha: Phaedon cochleariae, 168 h, PHAECO, 7 dat. As for the experimental part: Phaedon Cochleariae—Spray Test (PHAECO)
(§1) • Solvents: 78.0 parts by weight of acetone • 1.5 parts by weight of dimethylformamide • Emulsifier: 0.5 part by weight of alkylaryl polyglycol ether
(§2) To produce a suitable preparation of active compound, 1 part by weight of active compound is mixed with the stated amounts of solvents and emulsifier, and the concentrate is diluted with emulsifier-containing water to the desired concentration.
After the desired period of time, the effect in % is determined 100% means that all of the beetle larvae have been killed; 0% means that none of the beetle larvae have been killed.

The test system of assay [3] is greenhouse red spider mite (Tetranychus urticae). The assay is described as follows: Tetranychus urticae drench test, OP-resistant, systemic treatment (TETRUR sys.). As to conditions: soil, 336 h, 14 dat. As to the method:
Tetranychus urticae—Drench Test, OP-resistant, systemic treatment (TETRUR sys.)
• Solvent: 7 parts by weight of dimethylformamide • Emulsifier: 2 parts by weight of alkylaryl polyglycol ether
To produce a suitable preparation of active compound, 1 part by weight of active compound is mixed with the stated amounts of solvent and emulsifier, and the concentrate is diluted with water to the desired concentration. If the addition of ammonium salts or/and penetrants is required, these are in each case added in a concentration of 1000 ppm to the solution of the preparation.
Bean plants (Phaseolus vulgaris) which are heavily infested by all stages of the greenhouse red spider mite (Tetranychus urticae) are watered with an active compound preparation of the desired concentration.
(§3) After the desired period of time, the effect in % is determined. 100% means that all of the spider mites have been killed; 0% means that none of the spider mites have been killed.

For assay [4] the test system is unchanged. The experiment in a line: Tetranychus urticae spray test, OP-resistant (TETRUR), bean plants. As to conditions: 168 h, 7 dat. As for the experimental part:
Tetranychus urticae—Spray Test, OP-resistant (TETRUR) • Solvent: 7 parts by weight of dimethylformamide • Emulsifier: 2 parts by weight of alkylaryl polyglycol ether
To produce a suitable preparation of active compound, 1 part by weight of active compound is mixed with the stated amounts of solvent and emulsifier, and the concentrate is diluted with emulsifier-containing water to the desired concentration. If the addition of ammonium salts or/and penetrants is required, these are in each case added in a concentration of 1000 ppm to the solution of the preparation.
Bean plants (Phaseolus vulgaris) which are heavily infested by all stages of the greenhouse red spider mite (Tetranychus urticae) are sprayed with an active compound preparation of the desired concentration.
as §3

For assay [5] the test system is unchanged. The experiment in a line: Tetranychus urticae spray test, OP-resistant (TETRUR), bean leaf discs. The note with it: Tetranychus urticae, foliar, 144 h; TETRUR, 500 g/ha, 6 dat; read-out: % Activity. As to the method:
Tetranychus urticae—Spray Test; OP-resistant (TETRUR)
as §1, §2
Discs of bean leaves (Phaseolus vulgaris) which are infested by all stages of the greenhouse red spider mite (Tetranychus urticae) are sprayed with an active compound preparation of the desired concentration.
as §3

In assay [6] the test system is green peach aphid (Myzus persicae). The assay is described as follows: Myzus spray test (MYZUPE). As to conditions: Myzus persicae, 144 h; MYZUPE, 500 g/ha, 6 dat. As to the method: Myzus—Spray Test (MYZUPE)
as §1, §2
Discs of Chinese cabbage leaves (Brassica pekinensis) infested by all stages of the green peach aphid (Myzus persicae) are sprayed with an active compound preparation of the desired concentration.
After the desired period of time, the effect in % is determined. 100% here means that all of the aphids have been killed; 0% means that no aphids have been killed.

On to `CCC(=O)NCc1c(F)ccc(NC(=O)c2c(C(F)(F)F)c(C(F)(F)C(F)(F)F)nn2C)c1F` [Example 6], for which the inhibition at 100 g/ha in assay [1] and in assay [2] was 100% in each case. Also, the “efficacy compared to similar compounds of the prior art” value in assay [2] (PHAECO spray test) is listed as “superior efficacy”.
`CC(=O)NCc1cc(NC(=O)c2c(C(F)(F)F)c(C(F)(F)C(F)(F)F)nn2C)ccc1F` [Example 13]: the inhibition at 20 ppm was 90% in assay [3] and 30% in assay [4].
For `CCNC(=O)c1cc(NC(=O)c2c(C(F)(F)F)c(C(F)(F)C(F)(F)F)nn2C)ccc1Cl` [Example Ik-66, reference compound], in that order: 30% and 0%.
As to `CC(C)NC(=O)c1c(F)ccc(NC(=O)c2c(C(F)(F)F)c(C(F)(F)C(F)(F)F)nn2C)c1F` [Example Ik-74, reference compound], the inhibition at 100 g/ha in assay [1] worked out at 0%; in assay [2], 33%. The inhibition at 500 g/ha in assay [5] and in assay [6] was 0% each time.
